The values below come from patent US11000490B2, “Stable aqueous capsaicin injectable formulations and medical uses thereof” (priority 2016, dated 2021).

The test system of series [1] is New Zealand White rabbits. As to conditions: single intra-articular dose as Capsaicin Formulation A.
For another series, the system named is purebred beagle dogs. As to conditions: single intra-articular dose via Capsaicin Formulation A.
A short description of the next series: in vivo. As to conditions: both sexes, New Zealand White, rabbit, rabbits, 0.3 mg trans-capsaicin as Capsaicin Formulation A, intra-articular, Day 1, combined males and females. On the procedure: Animals were administered a single dose of test article (i.e., Capsaicin Formulation A, or placebo) on Day 1 via intra-articular injection into the right stifle joint. Dosing was followed by an observation period of 4 weeks. […] Prior to injection of test article, animals were sedated via gas anesthesia with sevoflurane. The gas was administered by designated technicians using a nose cone. Following anesthesia but prior to intra-articular injection, the injection site was prepared aseptically with three or more chlorhexidine scrubs, wiping with sterile water between each scrub. Animals were administered 1 mg/kg of midazolam and 0.6 mg/kg of meloxicam SR subcutaneously prior to gas anesthesia. […] The animal was monitored for pain and discomfort during recovery and was returned to its home cage after complete recovery. […] Additional pain management of animals was monitored by veterinary staff.
Assessment of toxicity was based on mortality, clinical observations (including qualitative food consumption), body weights, physical examinations, and clinical and anatomic pathology. […] Plasma samples were analyzed for capsaicin content. […] Abnormal findings or an indication of normal were recorded. Body weights were recorded twice during the pre-dose phase and on Days 1, 8, 15, and 22 of the dosing phase. […]

With `COc1cc(CNC(=O)CCCCC=CC(C)C)ccc1O` [trans-capsaicin, N-[(4-hydroxy-3-methoxyphenyl)methyl]-8-methylnon-6-enamide], the “no observed adverse effect level (NOAEL)” value came out at 0.3 mg in series [1] and 1 mg in the series on purebred beagle dogs. Moreover, the Cmax (commonly the highest concentration seen after dosing) in the series “in vivo” is 37.9 ng/mL. The AUC(0-t) in “in vivo” (read-out: mean AUC0-24) came out at 27.8 ng·h/mL.
